Results: patent US12678446B2 (PFIZER INC., priority 2020, dated 2026)

Columns and labels:
cell toxicity CC50 = type: cell-based; settings: human; Hep-G2 cells; mean of at least two experiments; read-out: Cell Cytotoxicity CC50
[1] = tested on: RSV (RSV A2 ECACC, 0709161v); experiment: RSV plaque reduction assay; type: cell-based, respiratory syncytial virus; settings: human respiratory syncytial virus, HepG2, read-out: RSV A2 Plaque EC50, RSV A2 in Hep-G2 cells; mean of at least two experiments unless noted (n = 1)
Procedure, shortened: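 Eight-point compound dilutions were premixed with RSV A2 (100 PFU/well) and applied to confluent Hep-G2 cells for 2 h, followed by a 2-day incubation at 37° C. under compound-containing 0.8% CMC overlay. EC50 comes from immunostained plaque counts relative to untreated virus wells, averaged over ≥2 runs.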

Structure (SMILES)	CC50 (cell toxicity CC50) [µM]	EC50 [1] [µM]
CCN(C(=O)OC(C)(C)C)C1COc2c(C(=O)N[C@H]3N=C(c4ccccc4)c4cccc(F)c4NC3=O)c(-c3ccccc3F)nn2C1 (stereo partly drawn) [Example 108, tert-butyl N-ethyl-N-[3-[[(3S)-9-fluoro-2-oxo-5-phenyl-1,3-dihydro-1,4-benzodiazepin-3-yl]carbamoyl]-2-(2-fluorophenyl)-6,7-dihydro-5H-pyrazolo[5,1-b][1,3]oxazin-6-yl]carbamate]	> 25	0.117
O=C(N[C@H]1N=C(c2ccccc2)c2cccc(F)c2NC1=O)c1c(-c2ccccc2F)nn2c1OC(CN1CCOCC1)CC2 (stereo partly drawn) [Example 167, N-[(3S)-9-fluoro-2-oxo-5-phenyl-1,3-dihydro-1,4-benzodiazepin-3-yl]-2-(2-fluorophenyl)-5-(morpholin-4-ylmethyl)-6,7-dihydro-5H-pyrazolo[5,1-b][1,3]oxazine-3-carboxamide]	> 25	0.091
CCc1ccc(-c2nn3c(c2C(=O)N[C@H]2N=C(c4ccccc4)c4ccccc4NC2=O)OCC2(CC2)C3)cn1 [Example 180, 2-(6-Ethylpyridin-3-yl)-N-[(3S)-2-oxo-5-phenyl-1,3-dihydro-1,4-benzodiazepin-3-yl]spiro[5,7-dihydropyrazolo[5,1-b][1,3]oxazine-6,1′-cyclopropane]-3-carboxamide]	> 25	0.075
CCn1ccc(-c2nn3c(c2C(=O)N[C@H]2N=C(c4ccccc4)c4cccc(F)c4NC2=O)O[C@H](C)CC3)n1 [Example 68, (5R)-2-(1-Ethylpyrazol-3-yl)-N-[(3S)-9-fluoro-2-oxo-5-phenyl-1,3-dihydro-1,4-benzodiazepin-3-yl]-5-methyl-6,7-dihydro-5H-pyrazolo[5,1-b][1,3]oxazine-3-carboxamide]	> 25	0.307
CC1Cn2nc(-c3ccccc3F)c(C(=O)N[C@H]3N=C(c4ccccc4)c4cccc(F)c4NC3=O)c2O1 (stereo in doubt) [Example 163, (2S)-N-[(3S)-9-fluoro-2-oxo-5-phenyl-1,3-dihydro-1,4-benzodiazepin-3-yl]-6-(2-fluorophenyl)-2-methyl-2,3-dihydropyrazolo[5,1-b][1,3]oxazole-7-carboxamide]	> 25	0.076
CCn1cc(-c2nn3c(c2C(=O)N[C@H]2N=C(c4ccccc4)c4cccc(F)c4NC2=O)O[C@H](C)CC3)cn1 [Example 84, (5R)-2-(1-Ethylpyrazol-4-yl)-N-[(3S)-9-fluoro-2-oxo-5-phenyl-1,3-dihydro-1,4-benzodiazepin-3-yl]-5-methyl-6,7-dihydro-5H-pyrazolo[5,1-b][1,3]oxazine-3-carboxamide]	> 25	0.07
C[C@@H]1CCn2nc(-c3ccccc3F)c(C(=O)N[C@H]3N=C(c4ccccc4)c4ccccc4NC3=O)c2O1 [Example 24, (5R)-2-(2-Fluorophenyl)-5-methyl-N-[(3S)-2-oxo-5-phenyl-1,3-dihydro-1,4-benzodiazepin-3-yl]-6,7-dihydro-5H-pyrazolo[5,1-b][1,3]oxazine-3-carboxamide]	> 25	0.077
O=C(N[C@H]1N=C(c2ccccc2)c2ccccc2NC1=O)c1c(-c2cccnc2)nn2c1OCCC2 [Example 16, N-[(3S)-2-Oxo-5-phenyl-1,3-dihydro-1,4-benzodiazepin-3-yl]-2-pyridin-3-yl-6,7-dihydro-H-pyrazolo[5,1-b][1,3]oxazine-3-carboxamide]	> 25	0.454
C[C@@H]1CCn2nc(-c3ccsc3)c(C(=O)N[C@H]3N=C(c4ccccc4)c4cccc(F)c4NC3=O)c2O1 [Example 63, (5R)-N-[(3S)-9-fluoro-2-oxo-5-phenyl-1,3-dihydro-1,4-benzodiazepin-3-yl]-5-methyl-2-(3-thienyl)-6,7-dihydro-5H-pyrazolo[5,1-b][1,3]oxazine-3-carboxamide]	> 25	0.094
C[C@@H]1CCn2nc(-c3cncc(Cl)c3)c(C(=O)N[C@H]3N=C(c4ccccc4)c4cccc(F)c4NC3=O)c2O1 [Example 47, (5R)-2-(5-Chloropyridin-3-yl)-5-methyl-N-[(3S)-9-fluoro-2-oxo-5-phenyl-1,3-dihydro-1,4-benzodiazepin-3-yl]-6,7-dihydro-5H-pyrazolo[5,1-b][1,3]oxazine-3-carboxamide]	> 25	0.084
CC1(C)COc2c(C(=O)N[C@H]3N=C(c4ccccc4)c4ccccc4NC3=O)c(-c3ccccc3F)nn2C1 [Example 40, 2-(2-Fluorophenyl)-6,6-dimethyl-N-[(3S)-2-oxo-5-phenyl-1,3-dihydro-1,4-benzodiazepin-3-yl]-5,7-dihydropyrazolo[5,1-b][1,3]oxazine-3-carboxamide]	> 25	0.057
CN(C)CC1COc2c(C(=O)N[C@H]3N=C(c4ccccc4)c4cccc(F)c4NC3=O)c(-c3ccccc3F)nn2C1 (mixture of isomers) [Example 171, 6-[(Dimethylamino)methyl]-N-[(3S)-9-fluoro-2-oxo-5-phenyl-1,3-dihydro-1,4-benzodiazepin-3-yl]-2-(2-fluorophenyl)-6,7-dihydro-5H-pyrazolo[5,1-b][1,3]oxazine-3-carboxamide]	> 25	0.059
C[C@@H]1COc2c(C(=O)N[C@H]3N=C(c4ccccc4)c4cccc(F)c4NC3=O)c(-c3ccccc3F)nn2C1 [Example 9, (6S)-N-[(3S)-9-fluoro-2-oxo-5-phenyl-1,3-dihydro-1,4-benzodiazepin-3-yl]-2-(2-fluorophenyl)-6-methyl-6,7-dihydro-5H-pyrazolo[5,1-b][1,3]oxazine-3-carboxamide]	> 18.8	0.03
C[C@@H]1CCn2nc(-c3ccoc3)c(C(=O)N[C@H]3N=C(c4ccccc4)c4ccccc4NC3=O)c2O1 [Example 62, (5R)-2-(3-Furyl)-5-methyl-N-[(3S)-2-oxo-5-phenyl-1,3-dihydro-1,4-benzodiazepin-3-yl]-6,7-dihydro-5H-pyrazolo[5,1-b][1,3]oxazine-3-carboxamide]	> 25	0.192
CN(C)CC1COc2c(C(=O)N[C@H]3N=C(c4ccccc4)c4cccc(F)c4NC3=O)c(-c3ccccc3F)nn2C1 (stereo in doubt) [Example 171-1, (6R*)-6-[(Dimethylamino)methyl]-N-[(3S)-9-fluoro-2-oxo-5-phenyl-1,3-dihydro-1,4-benzodiazepin-3-yl]-2-(2-fluorophenyl)-6,7-dihydro-5H-pyrazolo[5,1-b][1,3]oxazine-3-carboxamide]	> 25	0.053
O=C(N[C@H]1N=C(c2ccccc2)c2cccc(F)c2NC1=O)c1c(-c2ccc(F)cc2F)nn2c1OCCC2 [Example 2, 2-(2,4-Difluorophenyl)-N-[(3S)-9-fluoro-2-oxo-5-phenyl-1,3-dihydro-1,4-benzodiazepin-3-yl]-6,7-dihydro-5H-pyrazolo[5,1-b][1,3]oxazine-3-carobxamide]	> 25	0.022
O=C(N[C@H]1N=C(c2ccccc2)c2cccc(F)c2NC1=O)c1c(-c2ccccc2F)nn2c1SCCC2 [Example 35, N-[(3S)-9-Fluoro-2-oxo-5-phenyl-2,3-dihydro-1H-1,4-benzodiazepin-3-yl]-2-(2-fluorophenyl)-5H,6H,7H-pyrazolo[3,2-b][1,3]thiazine-3-carboxamide]	> 25	0.117
O=C(N[C@H]1N=C(c2ccccc2)c2cccc(F)c2NC1=O)c1c(-c2ccc(C3CC3)nc2)nn2c1OCCC2 [Example 18, 2-(6-Cyclopropylpyridin-3-yl)-N-[(3S)-9-fluoro-2-oxo-5-phenyl-1,3-dihydro-1,4-benzodiazepin-3-yl]-6,7-dihydro-5H-pyrazolo[5,1-b][1,3]oxazine-3-carboxamide]	> 25	0.096
C[C@H]1CCn2nc(-c3ccccc3F)c(C(=O)N[C@H]3N=C(c4ccccc4)c4ccccc4NC3=O)c2O1 [Example 26, (5S)-2-(2-Fluorophenyl)-5-methyl-N-[(3S)-2-oxo-5-phenyl-1,3-dihydro-1,4-benzodiazepin-3-yl]-6,7-dihydro-5H-pyrazolo[5,1-b][1,3]oxazine-3-carboxamide]	> 25	0.043
CCc1ncc(-c2nn3c(c2C(=O)N[C@H]2N=C(c4ccccc4)c4ccccc4NC2=O)O[C@H](C)CC3)cn1 [Example 59, (5R)-2-(2-Ethylpyrimidin-5-yl)-5-methyl-N-[(3S)-2-oxo-5-phenyl-1,3-dihydro-1,4-benzodiazepin-3-yl]-6,7-dihydro-5H-pyrazolo[5,1-b][1,3]oxazine-3-carboxamide]	> 25	0.309
CS(=O)(=O)c1ccc(-c2nn3c(c2C(=O)N[C@H]2N=C(c4ccccc4)c4cccc(F)c4NC2=O)OCCC3)c(F)c1 [Example 135, 2-(2-Fluoro-4-methylsulfonylphenyl)-N-[(3S)-9-fluoro-2-oxo-5-phenyl-1,3-dihydro-1,4-benzodiazepin-3-yl]-6,7-dihydro-5H-pyrazolo[5,1-b][1,3]oxazine-3-carboxamide]	> 25	0.015
CCNCC1COc2c(C(=O)N[C@H]3N=C(c4ccccc4)c4cccc(F)c4NC3=O)c(-c3ccccc3F)nn2C1 (stereo partly drawn) [Example 192, 6-(Ethylaminomethyl)-N-[(3S)-9-fluoro-2-oxo-5-phenyl-1,3-dihydro-1,4-benzodiazepin-3-yl]-2-(2-fluorophenyl)-6,7-dihydro-5H-pyrazolo[5,1-b][1,3]oxazine-3-carboxamide]	> 24.4	0.243
C[C@@H]1CCn2nc(-c3ccc(N4C[C@H]5C[C@@H]4CO5)nc3)c(C(=O)N[C@H]3N=C(c4ccccc4)c4cccc(F)c4NC3=O)c2O1 [Example 86, (5R)-5-Methyl-N-[(3S)-9-fluoro-2-oxo-5-phenyl-1,3-dihydro-1,4-benzodiazepin-3-yl]-2-[6-[(1R,4R)-2-oxa-5-azabicyclo[2.2.1]heptan-5-yl]pyridin-3-yl]-6,7-dihydro-5H-pyrazolo[5,1-b][1,3]oxazine-3-carboxamide]	> 25	0.044
